From US20150125452A1, “COMBINATION TREATMENTS COMPRISING C-MET ANTAGONISTS AND B-RAF ANTAGONISTS” (GENENTECH, INC., priority 2011, published 2015)
Entries after “also recorded” stand apart in the source; their conditions may differ.

Experiments:
Type in all cases: cell-based, Human
[1] = tested on: H2228 EML4-ALK translocated NSCLC cells; assay: Syto 60 viability and long-term staining with TAE684 and HGF
Procedure: (§1) Cells were co-treated with 50 ng/mL HGF. Error bars represent mean+/−s.e.m. […] FIG. 8C, Syto 60 staining of H2228 EML4-ALK translocated NSCLC cells treated with TAE684 (2 μM) in the presence and absence of HGF (50 ng/mL) as indicated. Cells were treated every 3 days for 9 days. FIG. 8D, Syto 60 staining of H358 EGF-like ligand-driven NSCLC cells treated with Erlotinib (5 μM) in the presence and absence of HGF (50 ng/mL) as indicated. Cells were treated every 3 days for 9 days.
FIG. 16: Syto 60 staining of H2228 EML4-ALK translocated NSCLC cells treated with TAE684 (2 μM) in the presence or absence of HGF (50 ng/mL) as indicated. Cells were treated every 3 days for 9 days.
(§2) Cell viability was assessed using the nucleic acid stain Syto 60 (Invitrogen). Cells (3000-5000 per well) were seeded into 96 well plates and allowed to adhere overnight. The next day, cells were treated with (or without) 50 ng/mL RTK ligand and concomitantly exposed to an increasing concentration range of the relevant kinase inhibitor. Following 72 hours drug exposure, cells were fixed in 4% formaldehyde, stained with Syto 60 and cell number was assessed using an Odyssey scanner (Li-Cor). Cell viability was calculated by dividing the fluorescence obtained from the drug-treated cells by the fluorescence obtained from the control (no drug) treated cells.

[2] = tested on: AKT and ERK phosphorylation; assay: Immunoblots of survival pathway re-activation
Procedure: FIGS. 2A-2C: pro-survival pathway re-activation correlated with RTK ligand rescue. FIG. 2A, Immunoblots showing the effect of acute RTK ligand treatment (50 ng/mL) on AKT and ERK phosphorylation following kinase inhibition (1 μM, 2 h). RTK ligand rescue is indicated, grey squares indicates complete rescue and black squares indicates partial rescue as determined by the initial screen (FIG. 1B). […] Cells were co-treated with 50 ng/mL RTK ligand in the presence of the appropriate secondary kinase inhibitor (0.5 μM) as indicated. […] Error bars represent mean+/−s.e.m. FIG. 2C, Immunoblots showing the effect of acute kinase inhibition (1 μM) in the presence and absence of RTK ligands (50 ng/mL, 2 h) on AKT and ERK phosphorylation. Cells were co-treated with secondary kinase inhibitor (0.5 μM) as appropriate.
Cell lysates were harvested using Nonidet-P40 lysis buffer, supplemented with Halt protease and phosphatase inhibitor cocktail (Thermo Scientific) and immunodetection of proteins was carried out using standard protocols. The phospho-HER2 (Y1248; #2247), HER2 (#2242), phospho-HER3 (Y1289; #4791), phospho-MET (Y1234/5; #3126), PDGFRα (#5241), phospho-FRS2α (Y196; #3864), IGF-1Rβ (#3027), phospho-ALK (Y1604; #3341), AKT (#9272), phospho-ERK (T202/Y204; #9101), ERK (#9102), GAPDH (#2118) and β-Tubulin (#2146) antibodies were purchased from Cell Signaling Technologies. Antibodies to HER3 (SC-285), MET (SC-10), phospho-PDGFRα (SC-12911), FRS2α (SC-8318), FGFR1 (SC-7945), FGFR2 (SC-122), FGFR3 (SC-13121) and ALK (SC-25447) were purchased from Santa Cruz Biotechnologies. Phospho-AKT (S473; #44-621G) antibody was purchased from Invitrogen. Phospho-EGFR (Y1068; ab5644) antibody was purchased from Abeam. EGFR (#610017) antibody was purchased from BD Biosciences. PARP (#14-6666-92) antibody was purchased from eBioscience. Densitometry was carried out using ImageJ software.

[3] = tested on: BRAF mutant melanoma cell lines; assay: Syto 60 cell viability, HGF rescue from PLX[…]; conditions: additional twelve cell lines
Procedure: Cells were treated twice weekly for the indicated times. […] Error bars represent mean+/−s.e.m.
as §2, with “Following 72 hours drug exposure, cells were fixed in 4% formaldehyde, stained with Syto 60 and cell number was assessed using an Odyssey scanner (Li-Cor).” left out

[4] = tested on: SK-MEL-28 cells; assay: Secreted factor screen, Cell Titer Glo; conditions: 5 μM PLX[…], 50 ng/mL factor, 72 h, 446 factors
Procedure: […] […] […] Error bars represent mean+/−s.e.m.
Following 72 h incubation, cell viability was determined using Cell Titer Glo (Promega).

[5] = tested on: AU565 HER2 amplified breast cancer cells; assay: Syto 60 viability and long-term staining with lapatinib and ligands
Procedure: FIGS. 3A-3G: HGF promoted lapatinib resistance in HER2 amplified cell lines. […] HGF rescue is indicated, black squares indicates partial rescue as determined by the initial screen (FIG. 1B). […] Cells were treated every three days for the indicated times. […] FIG. 3D, Immunoblots showing the re-activation of pAKT and pERK in two MET positive (AU565, HCC1954) and one MET negative (BT474) HER2 amplified cell lines. […] FIG. 3E, Representative slides showing MET expression in HER2 positive (3+) breast cancer tissues. FIG. 3F, selection of higher MET expressing AU565 cells following 3× treatments with lapatinib (1 μM) and HGF (50 ng/mL). FIG. 3G. […] Cells were treated twice weekly for the indicated times.
AU565 sells were co-treated with lapatinib (1 μM) in combination with 10 ng/mL NRG1 or FGF. […] Cells were treated with the appropriate kinase inhibitors in the presence of HGF (50 ng/mL). Cells were then treated with either 100 nM PI3K inhibitor (BEZ235) or MAPK inhibitor (AZD6244). Error bars represent mean+/−s.e.m.
as §2

[6] = tested on: H3122 EML4-ALK translocated NSCLC cancer cell line; assay: Cell viability assay with TAE684 or crizotinib and HGF; conditions: TAE684, 50 ng/mL HGF, 72 h
Procedure: Error bars represent mean+/−s.e.m.
as §2, with “Following 72 hours drug exposure, cells were fixed in 4% formaldehyde, stained with Syto 60 and cell number was assessed using an Odyssey scanner (Li-Cor).” left out

[7] = tested on: H358 EGF-like ligand-driven NSCLC cells; assay: Syto 60 long-term staining with erlotinib and HGF; conditions: erlotinib 5 μM, HGF 50 ng/mL, every 3 days for 9 days
Procedure: as §1

HGF: recombinant human RTK ligand (MET ligand) purchased from Peprotech
effect of HGF on longer-term TAE684 treatment ([1]; TAE684 2 μM, HGF 50 ng/mL, every 3 days for 9 days): rescued; also recorded: prevented acquired resistance to TAE684 | rescue from ALK inhibition by HGF at 72 hour time-point ([1]; TAE684, HGF, 72 h): not rescued from ALK inhibition | PI3K/MAPK pathway re-activation by RTK ligand in presence of kinase inhibitor ([2]; 50 ng/mL ligand, kinase inhibitor 1 μM, 2 h): re-activated both PI3K and MAPK pathways | re-activation of PI3K and MAPK signalling in HER2 amplified cell lines ([2]; AU565, HCC1954 (MET positive), BT474 (MET negative), lapatinib 1 μM, HGF 50 ng/mL, 2 h): re-activated PI3K and MAPK signalling pathways specifically in MET-positive, but not in MET-negative cells | persistence of redundant RTK activation and downstream survival signalling ([2]; AU565 cells, lapatinib 1 μM and HGF 50 ng/mL): at least 48 hours | re-activation of AKT and ERK activity in presence of TAE684 ([2]; H2228 cells): able to re-activate AKT and ERK activity | ERK and AKT activation in presence of TAE684 ([2]; H3122 cells, TAE684 1 μM, HGF 50 ng/mL, 2 h): promotes ERK and AKT activation | re-activation of MAPK signalling (pERK) in BRAF mutant cell lines ([2]; PLX[…] 1 μM, HGF 50 ng/mL, 2 h, MET positive versus MET negative lines): could re-activate MAPK signalling in cell lines that were rescued by HGF | number of additional BRAF mutant melanoma lines with HGF-attenuated PLX[…] sensitivity [3]: 5 of the 12 | effect of secreted factor on PLX[…] sensitivity [4]: could attenuate PLX4032 sensitivity | MET expression of cell population after co-treatment ([5]; 9-day lapatinib and HGF co-treatment): increased MET expression | resistance to lapatinib on longer-term co-treatment ([5]; 12 days, lapatinib 1 μM, HGF 50 ng/mL): rapidly promoted resistance to lapatinib | rescue from ALK inhibition by HGF [6]: efficiently rescued from ALK inhibition | effect of HGF on longer-term erlotinib treatment [7]: rescued
